In patent US5597823A, “Tricyclic substituted hexahydrobenz [e]isoindole alpha-1 adrenergic antagonists” (priority 1995, dated 1997):
Counter-ions that a name gives are not always drawn.

Biological target: T1, α-1A adrenoceptor (dog prostate) (Canis lupus, UniProt A0A8I3NK63)
T1 sequence (A0A8I3NK63 1-466): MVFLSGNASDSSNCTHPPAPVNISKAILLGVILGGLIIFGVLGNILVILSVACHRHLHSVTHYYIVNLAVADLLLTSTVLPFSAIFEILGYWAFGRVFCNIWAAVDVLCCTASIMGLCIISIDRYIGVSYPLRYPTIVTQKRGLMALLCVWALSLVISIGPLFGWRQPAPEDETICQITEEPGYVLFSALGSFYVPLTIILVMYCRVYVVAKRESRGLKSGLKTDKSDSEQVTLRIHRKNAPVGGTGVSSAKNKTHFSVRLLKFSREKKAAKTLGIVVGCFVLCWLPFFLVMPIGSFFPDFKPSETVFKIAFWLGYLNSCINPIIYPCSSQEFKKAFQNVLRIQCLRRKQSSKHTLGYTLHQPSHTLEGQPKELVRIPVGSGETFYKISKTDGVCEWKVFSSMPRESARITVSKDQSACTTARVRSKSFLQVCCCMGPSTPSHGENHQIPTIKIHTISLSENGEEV
Test: Functional antagonism: phenylephrine (PE)-induced contraction of canine prostate strips
Assay type: cell-based
Settings: Table 2b, vs phenylephrine, Schild plot
Description: Functional assays indicative of pharmacologically defined α-1 adrenoceptors were used to further characterize compounds. Inhibition of phenylephrine (PE)-induced contraction of canine prostate smooth muscle can be correlated with α-1A adrenoceptor activation. […] For each of these models, agonist dose response curves were repeated against increasing concentrations of test agent to derive a Schild plot [log ([…]) against log (molarity of test agent)] to determine the pA2.
Canine prostate strips were used in vitro as previously described (Hieble, J. P., Boyce, A. J. and Caine, M., Fed. Proc., 45:2609-2614 (1986)), to determine antagonist potencies against phenylephrine-induced contractions.

| pA2 Dog Prostate [α-1A] | pA2 Dog Prostate [α-1A] (hydrochloride) | Structure (SMILES) |
| --- | --- | --- |
| 7.06 |  | COc1cccc2c1CC[C@H]1CN(CCn3c(-c4ccccc4)nc4c(sc5ccccc54)c3=O)C[C@@H]21 (relative stereo) [Example 30, 3-[2-(cis-6-Methoxy-2 3 3a,4,5,9b-hexahydro-[1H]-benz[e]isoindol-1-yl)ethyl]-2-phenyl-[1]benzothieno[3,2-d]-4(1H,3H)-one hydrochloride] |
| 8.00 |  | O=c1[nH]c2c(sc3ncccc32)c(=O)n1CCN1C[C@@H]2CCc3c(ccc4c3OCO4)[C@@H]2C1 (relative stereo) [Example 111, hydrochloride] |
| 7.46 |  | COc1cccc2c1CC[C@H]1CN(CCn3c(=O)[nH]c4c(sc5cc(C(F)(F)F)ccc54)c3=O)C[C@@H]21 [Example 32, 3-[2-((3aR,9bR)-cis76-Methoxy-2,3,3a,4,5,9b-hexahydro-[1-benz[e]isoindol-1-yl)ethyl]-7-trifluoromethyl[1]benzothieno[23-d]pyrimidine-2,4(1H,3H)-dione hydrochloride] |
| 6.56 |  | COc1cccc2c1CC[C@H]1CN(CCn3c(=O)c4sc5ccccc5c4n(C)c3=O)C[C@@H]21 [Example 33, hydrochloride] |
| 9.15 |  | COc1cccc2c1CC[C@H]1CN(CCn3cnc4c(sc5ncccc54)c3=O)C[C@@H]21 [Example 34, 3-[2-((3aR,9bR)-cis-6-Methoxy-2,3,3a,4,5,9b-hexahydro-[1H]-benz[e]isoindol-1-yl)ethyl]-pyrido[3',2':4,51thieno[3,2:d]pyrimidine-4(3H)-one dihydrochloride] |
|  | 8.74 | COc1cccc2c1CC[C@H]1CN(CCn3c(=O)[nH]c4c(sc5cccc(C)c54)c3=O)C[C@@H]21 [Example 35, 3-2-((3aR,9bR)-cis-6-Methoxy-2,3,3a,4,5,9b-hexahydro-[1H]-benz[e]isoindol-1-yl)ethyl]-9-methyl[1]benzothieno[3,2-d]pyrimidine-2,4(1H,3H)-dione hydrochloride] |
| 9.15 |  | COc1cccc2c1CC[C@H]1CN(CCn3c(=O)[nH]c4c(sc5cccnc54)c3=O)C[C@@H]21 [Example 37, dihydrochloride] |
| 9.75 |  | COc1cccc2c1CC[C@H]1CN(CCn3c(=O)[nH]c4c(sc5ccncc54)c3=O)C[C@@H]21 [Example 38, 3-[2-((3aR,9bR)-cis-6-Methoxy-2,3,3a,4,5,9b-hexahydro-[1H]-benz[e]isoindol-1-yl)ethyl]1-pyrido[3',4':4,5]thieno[3,2-d]pyrimidine-2,4(1H,3H)-dione dihydrochloride] |
| 9.72 |  | COc1cccc2c1CC[C@H]1CN(CCn3c(=O)[nH]c4c(sc5ncncc54)c3=O)C[C@@H]21 [Example 40, 3-[2-(cis-(3aR,9bR)-6-Methoxy-2,3,3a,4,5,9b-hexahydro-[1H]-benz[e]isoindol-1-yl)ethyl]-thieno[2,3-d:4,5]dipyrimidine-2,4(1H,3H)-dione] |
| 9.03 |  | COc1cccc2c1CC[C@H]1CN(CCn3c(=O)[nH]c4c(sc5cncnc54)c3=O)C[C@@H]21 [Example 41] |
| 9.09 |  | COc1cccc2c1CC[C@H]1CN(CCn3c(=O)[nH]c4c(sc5cc(C#N)ccc54)c3=O)C[C@@H]21 [Example 42, 3-[2-((3aR,9bR)-cis-6-Methoxy-2,3,3a,4,5,9b-hexahydro-[1H]-benz[e]isoindol-1-yl)ethyl]-[1]-7-cyano-benzothieno[3,2-d]pyrimidine-2,4(1H,3H)-dione hydrochloride] |
| 8.44 |  | COc1cccc2c1CC[C@H]1CN(CCn3c(=O)[nH]c4c(sc5ccc(C#N)cc54)c3=O)C[C@@H]21 [Example 43, 3-[2-((3aR,9bR)-cis-6-Methoxy-2,3,3a,4,5,9b-hexahydro-[1H]-benz[e]isoindol-1-yl)ethyl]-[1]-8-cyano-benzothieno[3,2-d]pyrimidine-2,4(1H,3H)-dione hydrochloride] |
| 8.09 |  | COC(=O)c1ccc2sc3c(=O)n(CCN4C[C@@H]5CCc6c(OC)cccc6[C@@H]5C4)c(=O)[nH]c3c2c1 [Example 44, 3-[2-((3aR,9bR)-cis-6-Methoxy-2,3,3a,4,5,9b-hexahydro-[1H]-benz[e]isoindol-1-yl)ethyl]-[1]-8-carbomethoxy-benzothieno[3,2-d]pyrimidine-2,4(1H,3H)-dione hydrochloride] |
| 9.48 |  | COc1cccc2c1CC[C@H]1CN(CCn3c(=O)[nH]c4c(sc5ccc(C(=O)N(C)C)cc54)c3=O)C[C@@H]21 [Example 45, hydrochloride] |

The next lines start with the compound.

| Structure (SMILES) | pA2 Dog Prostate [α-1A] | pA2 Dog Prostate [α-1A] (hydrochloride) |
| --- | --- | --- |
| COc1cccc2c1[C@@H]1CN(CCn3c(=O)[nH]c4c(sc5ccccc54)c3=O)C[C@H]1CC2 (relative stereo) [Example 2, 3-[2-(trans-9-Methoxy-2,3,3a4,5,9b-hexahydro-[1H]-benz[e]isoindol-1-yl)ethyl]-[1]benzothieno[3,2-d]pyrimidine-2,4(1H,3H)-dione hydrochloride] | 7.81 |  |
| COc1cccc2c1CC[C@H]1CN(CCn3c(=O)[nH]c4c(oc5ccccc54)c3=O)C[C@@H]21 (relative stereo) [Example 3, 3-[2-(cis-6-Methoxy-2,3,3a,4,5,9b-hexahydro-1H]-benz[e]isoindol-1-yl)ethyl]-benzofuro[3,2-d]pyrimidine-2,4(1H,3H)-dione hydrochloride] | 8.4 |  |
| COc1cccc2c1[C@@H]1CN(CCCn3c(=O)[nH]c4c(sc5ccccc54)c3=O)C[C@@H]1CC2 (relative stereo) [Example 6, hydrochloride] | 6.91 |  |
| COc1cccc2c1CC[C@H]1CN(CCn3c(=O)[nH]c4sc5c(c4c3=O)CCCC5)C[C@@H]21 (relative stereo) [Example 7, 3-[2-(cis-6-Methoxy-2,3,3a4,5,9b-hexahydro-[1H]-benz[e]isoindol-1-yl)ethyl]-[1]-5,6,7,8-tetrahydrobenzothieno[2,3-d]pyrimidine-2,4(1H,3H)-dione hydrochloride] | 7.85 |  |
| COc1cccc2c1CC[C@H]1CN(CCCCn3c(=O)[nH]c4c(sc5ccccc54)c3=O)C[C@@H]21 (relative stereo) [Example 12, 3-[4-(cis-6-Methoxy-2,3,3a,4,5,9b-hexahydro-[1H]-benz[e]isoindol-1-yl)butyl]-[1]benzothieno[3,2-d]pyrimidine-2,4(1H,3H)-dione hydrochloride] | 7.33 |  |
| COc1cccc2c1CC[C@H]1CN(CCn3c(=O)[nH]c4sc5ccccc5c4c3=O)C[C@@H]21 (relative stereo) [Example 13, 3-[2-(cis-6-Methoxy-2,3,3a,4,5,9b-hexahydro-[1H]-benz[e]isoindol-1-yl)ethyl]-[1]benzothieno[2,3-d]pyrimidine-2,4(1H,3H)-dione hydrochloride] | 7.68 |  |
| COc1cccc2c1[C@@H]1CN(CCCCn3c(=O)[nH]c4c(sc5ccccc54)c3=O)C[C@@H]1CC2 (relative stereo) [Example 15, 3-[4-(cis-9-Methoxy-2,3,3a,4,5,9b-hexahydro-1H]-benz[e]isoindol-1-yl)butyl]-[1]benzothieno[3,2-d]pyrimidine-2,4(1H,3H)-dione hydrochloride] | 7.34 |  |
| O=c1[nH]c2c(sc3ccccc32)c(=O)n1CCN1C[C@@H]2CCc3c(O)cccc3[C@@H]2C1 (relative stereo) [Example 20, 3-2-(cis-6-Hydroxy-2,3,3a,4,5,9b-hexahydro-[1H]-benz[e]isoindol-1-yl)ethyl]-[1]benzothieno[3,2-d]pyrimidine-2,4(1H,3H) -dione hydrobromide] | 7.43 |  |
| COc1cccc2c1CC[C@H]1CN(CCn3c(=O)[nH]c4cc5ccccc5cc4c3=O)C[C@@H]21 (relative stereo) [Example 21, 3-[2-(cis-6-Methoxy-2,3,3a,4,5,9b-hexahydro-[1H]-benz[e]isoindol-1-yl)ethyl]-benzo[g]quinazoline-2,4(1H,3H):dione hydrochloride] | 7.43 |  |
| COc1cccc2c1CC[C@H]1CN(CCn3c(=O)[nH]c4c5c(sc4c3=O)CCCC5)C[C@@H]21 (relative stereo) [Example 22, hydrochloride] | 8.32 |  |
| COc1cccc2c1CC[C@H]1CN(CCn3c(=O)[nH]c4c(oc5ncccc54)c3=O)C[C@@H]21 (relative stereo) [Example 27, 3-[2-(cis-6-Methoxy-2,3,3a,4,5,9b-hexahydro-[1H]-benz[e]isoindol-1-yl)ethyl]-pyrido[3',2':4,5]furo[3,2-d]pyrimidine-2,4(1H,3H)-dione hydrochloride] | 8.72 |  |
| COc1cccc2c1CC[C@H]1CN(CCn3cnc4c(sc5ccccc54)c3=O)C[C@@H]21 (relative stereo) [Example 28, dihydrochloride] | 7.75 |  |
| COc1cccc2c1CC[C@H]1CN(CCn3c(C)nc4c(sc5ccccc54)c3=O)C[C@@H]21 (relative stereo) [Example 29, dihydrochloride] | 7.43 |  |
| COc1cccc2c1[C@H]1CN(CCn3c(=O)[nH]c4c(sc5ccccc54)c3=O)C[C@H]1CC2 [Example 19, hydrochloride] | 6.66 |  |
| COc1cccc2c1[C@@H]1CN(CCn3c(=O)[nH]c4c([nH]c5ccccc54)c3=O)C[C@@H]1CC2 [Example 24, hydrochloride] | 8.6 |  |
